Measured values: patent US12162850B2, “Formulations” (Betagenon AB, priority 2019, dated 2024)

Assays:
[1] = Particle size analysis of dry-milled products (laser diffraction, Shimadzu SALD-2300); type: physicochemical
Procedure: Milling was performed for Examples 1a to 1c using an air jet mill (Equipment code: CP-AJM-01; Promas engineers) with the following parameters: Micronisation was repeated in all examples by performing the air jet milling for a second time using the same parameters. This allowed the particle size D90 to be reduced to less than 10 μm. [table] Four drops of Tween 20 were added to 25 mL of water and the mixture was sonicated for 3 minutes to form the dispersant solution. 0.05 g of milled material was transferred into a 250 mL glass beaker. 25 mL of the dispersant solution (Tween 20/water mixture) was added to the beaker with continuous swirling for 2 to 3 minutes. The suspension was transferred into the measuring unit and the particle size distribution measurements were conducted in triplicate.

[2] = Single dose oral pharmacokinetic studies in rabbits; type: in vivo, male New Zealand White rabbits; conditions: for Plasma concentration, mean: 90 mg/kg b.w. oral; for AUCextrap / AUC(0-inf) / AUC(0-t) / Cmax / MRT last / Tmax / half-life: 90 mg/kg b.w. oral single dose; for AUC(0-inf) / AUC(0-t) / Cmax / MRT last / Tmax / half-life: male, New Zealand White, plasma, po, 90 mg/kg
Procedure: The studies detailed below (and referred to as Examples 2 to 8) were conducted to provide comparative single dose oral pharmacokinetics data for Compound 1, as well as sodium and potassium salts of that compound, using non-coated and enteric-coated capsules in male New Zealand White rabbits.
Compound 1 was made using the process described in WO 2011/004162 and milled as described for Example 1c. The non-coated or enteric coated gelatin capsules were individually filled with 180 mg of dry-milled Compound 1 together with accompanying excipients as indicated. Both capsule types were filled with Compound 1 together with 1.8 mg of sodium docusate, 0.18 mg of PVP K30 and 9 mg of mannitol.
Similarly, Compound 2, non-coated or enteric coated gelatin capsules were individually filled with 180 mg of dry-milled Compound 2 (as obtained in Example 1f) together with 1.8 mg of sodium docusate, 0.18 mg of PVP K30 and 9 mg of mannitol.
For Compound 3, non-coated or enteric coated gelatin capsules were individually filled with 90 mg of dry-milled Compound 3 (as obtained in Example 1i) together with 0.90 mg of sodium docusate, 0.09 mg of PVP K30 and 4.50 mg of mannitol.
40 mL of the 2% w/v methyl cellulose solution was added to a 250 mL conical flask together with 10 g of 2 mm glass beads, and vigorously stirred. Compound 1 (720 mg) was slowly added to the solution and the mixture was with continuously stirred for 1 h. The homogenate was transferred to separate flask and its pH recorded. The suspension formulation was prepared before administration to the animals.
Adult healthy male New Zealand white rabbits aged approximately 2 to 3 months old were used for experimentation after 7 days of acclimatization.
To dose the filled capsules, a soft plastic dosing tube was used. The filled capsule was inserted into the dosing tube so that the short end of the capsule protrudes slightly from the tip of the tube. The tip of the capsule was dipped in mineral oil to aid swallowing.
To dose the suspension, an infant feeding tube was used. The feeding tube was inserted through the mouth of the rabbit to the oesophagus and the stomach, and ascertained that it has not been placed in the trachea before dosing to the animals. The suspension of the Compound 1 was administered through the feeding tube. After the administration of the suspension, drinking water of approximately 2.0-2.5 mL was administered to flush out the contents in the feeding tube.
The animals were restrained in a rabbit restrainer and blood samples (400-500 μL/time point) were collected via the central ear artery at 0.16, 0.25, 0.50, 1.0, 2.0, 4.0, 6.0, 8.0, 24.0, 48.0 and 72 hours post-dosing. Collected blood specimens were centrifuged at 4000 or 6000 rpm, 4° C. for 10 minutes and plasma samples were separated and stored at −80° C. until analysis.
Concentrations of the analyte of Compound 1 in New Zealand white rabbits was determined using an API 3200 Q-trap LC-MS/MS system.
Chromatographic separation was achieved on Zorbax C18, 50×4.6 mm, 5 μm column with methanol-0.1% formic acid as mobile phase with gradient elution. The flow rate was set at 1.0 mL min^−1. Detection was accomplished by a triple-quadrupole tandem mass spectrometer in multiple-reaction monitoring (MRM) scanning via electrospray ionization source, applied in the positive mode. The optimised mass transition ion-pairs for quantitation were m/z 379.999→125.000 for the compound 1 and m/z 376.165→165.00 for the ISD (Haloperidol). Calibration plots were linear over the range of 11.062 to 20594.820 ng/mL.
The data of plasma concentration to respective time points for the analyte Compound 1 were used for the pharmacokinetic analysis. Pharmacokinetic analysis was performed using non-compartmental analysis (NCA) module of Phoenix WinNonlin 6.3 software to determine the following pharmacokinetic parameters: • Cmax • Tmax • AUC0-t • AUC0-∞ • T1/2 • MRT […]

[3] = after 1st milling (air jet mill)
[4] = after 2nd milling (air jet mill)
[5] = rabbit, enteric coated capsule, rabbit plasma (Examples 5, 6, 7)
[6] = rabbit, non-coated capsule, rabbit plasma (Examples 2, 3, 4)

## O=C(Nc1nc(=O)n(Cc2ccc(Cl)cc2)s1)c1ccc(Cl)cc1.[K] [Compound 3, 4-chloro-N-[2-[(4-chlorophenyl)methyl]-3-oxo-1,2,4-thiadiazol-5-yl]benzamide potassium salt]
[1]; [3]
  Particle size distribution D10: 0.382 μm
  Particle size distribution D50: 3.64 μm
  Particle size distribution D90: 26.2 μm
  Particle size distribution D100: 584 μm
[1]; [4]
  Particle size distribution D10: 0.289 μm
  Particle size distribution D50: 1.57 μm
  Particle size distribution D90: 11.7 μm
  Particle size distribution D100: 35.3 μm
[1]; before milling
  Particle size distribution D10: 0.876 μm
  Particle size distribution D50: 13.4 μm
  Particle size distribution D90: 205 μm
  Particle size distribution D100: 665 μm
[2]; 0.00 h, enteric coated capsule, rabbit
  Plasma concentration, mean: 0.000 ng/mL
[2]; 0.00 h, non-coated capsule, rabbit
  Plasma concentration, mean: 0.000 ng/mL
[2]; 0.16 h, enteric coated capsule, rabbit
  Plasma concentration, mean: 0.000 ng/mL
[2]; 0.16 h, non-coated capsule, rabbit
  Plasma concentration, mean: 169.000 ng/mL
[2]; 0.25 h, enteric coated capsule, rabbit
  Plasma concentration, mean: 0.000 ng/mL
[2]; 0.25 h, non-coated capsule, rabbit
  Plasma concentration, mean: 255.336 ng/mL
[2]; 0.50 h, enteric coated capsule, rabbit
  Plasma concentration, mean: 0.000 ng/mL
[2]; 0.50 h, non-coated capsule, rabbit
  Plasma concentration, mean: 457.796 ng/mL
[2]; 1.00 h, enteric coated capsule, rabbit
  Plasma concentration, mean: 4.721 ng/mL
[2]; 1.00 h, non-coated capsule, rabbit
  Plasma concentration, mean: 2349.624 ng/mL
[2]; 2.00 h, enteric coated capsule, rabbit
  Plasma concentration, mean: 93.881 ng/mL
[2]; 2.00 h, non-coated capsule, rabbit
  Plasma concentration, mean: 4456.537 ng/mL
[2]; 4.00 h, enteric coated capsule, rabbit
  Plasma concentration, mean: 2558.779 ng/mL
[2]; 4.00 h, non-coated capsule, rabbit
  Plasma concentration, mean: 16997.495 ng/mL
[2]; 6.00 h, enteric coated capsule, rabbit
  Plasma concentration, mean: 7906.592 ng/mL
[2]; 6.00 h, non-coated capsule, rabbit
  Plasma concentration, mean: 21418.736 ng/mL
[2]; 8.00 h, enteric coated capsule, rabbit
  Plasma concentration, mean: 16147.149 ng/mL
[2]; 8.00 h, non-coated capsule, rabbit
  Plasma concentration, mean: 39754.464 ng/mL
[2]; 24.00 h, enteric coated capsule, rabbit
  Plasma concentration, mean: 66084.614 ng/mL
[2]; 24.00 h, non-coated capsule, rabbit
  Plasma concentration, mean: 75168.570 ng/mL
[2]; 48.00 h, enteric coated capsule, rabbit
  Plasma concentration, mean: 79465.599 ng/mL
[2]; 48.00 h, non-coated capsule, rabbit
  Plasma concentration, mean: 77379.051 ng/mL
[2]; 72.00 h, enteric coated capsule, rabbit
  Plasma concentration, mean: 49785.289 ng/mL
[2]; 72.00 h, non-coated capsule, rabbit
  Plasma concentration, mean: 60164.693 ng/mL
[2]; dry milled, capsules, 90 mg/kg oral, rabbit
  improvement in systemic exposure compared with the milled free base active ingredient: more modest improvement
[2]; enteric coated capsule, rabbit plasma (Examples 5, 6, 7)
  AUCextrap: 69.48 ± 19.80%
[2]; [5]
  AUC(0-inf): 18600 ± 13800 µg·h/mL
  AUC(0-t): 3990 ± 43.3 µg·h/mL
  Cmax: 79500 ± 5430 ng/mL
  MRT last: 42 ± 0.696 h
  Tmax: 48 h
  half-life: 189 ± 158 h
[2]; [6]
  AUC(0-inf): 9370 ± 3380 µg·h/mL
  AUC(0-t): 4530 ± 589 µg·h/mL
  Cmax: 81900 ± 10400 ng/mL
  MRT last: 39.6 ± 3.88 h
  Tmax: 40 ± 13.9 h
  half-life: 71.6 ± 22.6 h
[2]; non-coated capsule, rabbit plasma (Examples 2, 3, 4)
  AUCextrap: 52.23 ± 10.63%
